Like-named read-outs stand apart in the source and are kept apart here.
How the values were obtained:
[1] = target: sodium iodide symporter (NIS) (Rattus norvegicus, UniProt Q63008); conditions: read-out: Km of NIS transport; Xenopus oocytes (Eskandari 1997); cited from earlier work
[2] = test system: HeLa cells; experiment: Seahorse oxygen and oxygen consumption rate measurement in intact cells; type: cell-based, human; conditions: 1% ambient oxygen
[3] = test system: NdCld; conditions: purified bacterial expressed NdCld (Kostan 2010; Hofbauer 2014); cited from earlier work
NdCld, sequence (as listed by the source): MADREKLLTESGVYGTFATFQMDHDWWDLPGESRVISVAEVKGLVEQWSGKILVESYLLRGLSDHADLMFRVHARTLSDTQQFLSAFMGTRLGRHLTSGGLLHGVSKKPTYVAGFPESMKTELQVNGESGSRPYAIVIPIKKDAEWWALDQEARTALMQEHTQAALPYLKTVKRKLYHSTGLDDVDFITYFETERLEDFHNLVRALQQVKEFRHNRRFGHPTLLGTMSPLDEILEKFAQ

[4] = test system: NdCld; conditions: NdCld in E. coli extracts (Maixner 2008); cited from earlier work
[5] = test system: HeLa cells; conditions: read-out: concentration giving 50% decrease in viability; HeLa cells (GFP), treated for 3 days, FIG. 3A
Method: Cell counts and viability were assessed after 3 days of growth using a Vi-Cell BLU Cell Viability Analyzer. Shown is the mean+/−s.d. of triplicate measurements.
HeLa cells were trypsinized, counted, and prepared at 10^5 cells/ml in normal growth media. […] Cells were seeded in 24-well plates, with triplicate wells for each condition. 500 ul of each 2× chlorite/media preparation was first added to the plate. 500 ul of cell suspension (5×10^4 cells) was then added to each well. The plate was gently mixed, and cells were grown for 3 days in a 37° C./5% CO2 incubator. After 3 days, cells were washed briefly with 500 ul of PBS, trypsinized with 250 ul TrypLE Express, and resuspended with 750 ul of normal growth media to 1 ml total volume. In wells containing a majority of visibly dead, floating cells, cells were resuspended by vigorously pipetting up and down rather than by trypsinization. 200 ul of each cell suspension was then quantified using a Vi-Cell BLU Cell Viability Analyzer (Beckman Coulter).

[6] = test system: NdCld; conditions: human digitonin-permeabilized HeLa cell extract expressing NdCld, initial rates of oxygen evolution
Method: HeLa cells were pelleted at 800×g for 3 min, washed with PBS, pelleted again, and then resuspended in assay buffer (125 mM KCl, 2 mM K2HPO4, 1 mM MgCl2, 2 0 mM HEPES pH 7.2, 5 mM glutamate, 5 mM malate, and 0.01% digitonin) at a concentration of 5×10^6 cells/ml. Oxygen production was measured using a FireSting optical oxygen meter connected to a sensor vial. One ml of cell solution (5×10^6 cells) was used for each measurement. Measurements were performed under ambient air conditions with stirring of the cell solution. […] The initial rates were determined from the resulting oxygen traces using up to 20 seconds of the linear portion of the trace via the ICEKAT web server (Olp, 2020). The means of 3 replicate rates were plotted against the chlorite concentrations to estimate the KM.
We next characterized the activity of this protein in human cell extracts. […] Doses spanning 10 uM to 1 mM were used, as previous studies have shown that higher chlorite concentrations lead to inactivation of the enzyme (Hofbauer 2014). We monitored oxygen evolution using an optical probe in a well-stirred, air saturated cuvette.

[7] = test system: yeast; conditions: read-out: dose required to achieve 50% growth inhibition; yeast (Kwolek-Mirek 2011); cited from earlier work

sodium iodide symporter (NIS), sequence (Q63008 whole entry): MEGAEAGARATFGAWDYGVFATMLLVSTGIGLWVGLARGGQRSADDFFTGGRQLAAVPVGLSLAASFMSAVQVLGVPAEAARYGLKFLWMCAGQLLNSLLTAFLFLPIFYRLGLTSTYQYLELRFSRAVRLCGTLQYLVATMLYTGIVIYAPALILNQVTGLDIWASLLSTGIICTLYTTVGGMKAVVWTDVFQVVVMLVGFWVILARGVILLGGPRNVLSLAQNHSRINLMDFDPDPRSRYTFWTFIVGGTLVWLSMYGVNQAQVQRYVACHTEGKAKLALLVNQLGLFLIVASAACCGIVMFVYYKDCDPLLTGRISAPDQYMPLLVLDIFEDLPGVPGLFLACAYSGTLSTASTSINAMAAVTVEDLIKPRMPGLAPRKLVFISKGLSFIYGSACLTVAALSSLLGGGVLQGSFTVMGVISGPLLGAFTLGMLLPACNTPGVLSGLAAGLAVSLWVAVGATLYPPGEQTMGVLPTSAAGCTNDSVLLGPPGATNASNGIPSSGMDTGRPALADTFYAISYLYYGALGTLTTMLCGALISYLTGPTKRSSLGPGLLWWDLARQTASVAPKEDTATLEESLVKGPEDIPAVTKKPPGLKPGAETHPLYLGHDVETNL

Compound | Km [1] [µM] | oxygen generation (decline in apparent OCR) ([2]; HeLa cells co-expressing NdCld and NIS, piericidin+antimycin, dose response beginning with 1 mM chlorite) | oxygen evolution in intact cells ([2]; HeLa cells expressing FLAG-NdCld+NIS (not mCherry), 500 uM or 1 mM chlorite) | Km [3] [µM] | Km [4] [µM] | IC50 [5] [µM] | Vmax [6] | Km ([6]; read-out: Km for chlorite) [µM] | IC50 [7] [µM]
[O-][Cl+2]([O-])O [chlorate] | 277 | – | – | – | – | – | – | – | –
sodium chlorite | – | robust oxygen production | observed oxygen evolution | 58 to 69 | 15800 | ~2000 | 0.37 umoles/second/100,000 cells | 560 | 4000

Source: patent publication US20250297233A1, “GENETICALLY ENCODED SYSTEMS FOR GENERATING OXYGEN IN LIVING EUKARYOTIC CELLS” (The General Hospital Corporation, priority 2022, published 2025)
